Reference: patent publication US20110044969A1, “Antimicrobial Agents for the Treatment of Campylobacter Species in the Crop of a Bird” (NOFIMA MAT AS, priority 2008, published 2011)

Tested on: C. jejuni strain 484, strain 523 and strain 534
Conditions: pH 6.0 and 6.5; acid 0.1, 0.01, 0.001, 0.0001%; 48 hours at 42° C. microaerophilic; growth by spectrophotometer; all three strains
Procedure: Three C. jejuni strains were compared in vitro for sensitivity for benzoic acid and sorbic acid at two different pH values. These strains were C. jejuni strain 484 (from poultry leg), C. jejuni strain 523 (from poultry faeces), and C. jejuni strain 534 (from poultry faeces). Different combinations of pH (6.0 and 6.5) and concentrations of the acids (0.1, 0.01, 0.001, and 0.0001%) were tested in Mueller-Hinton broth (MH) with supplement for Campylobacter (SR232E; Oxoid Ltd., Basingstoke, UK). The strains were incubated in microaerophilic atmosphere for 48 hours at 42° C., and growth was measured by spectrophotometer.
Three C. jejuni strains were tested for in vitro growth at different combinations of pH (6.0 and 6.5) and concentrations of sorbic- and benzoic acid (0.1, 0.01, 0.001, and 0.0001%).

## C/C=C/C=C/C(=O)O [sorbic acid]
  in vitro growth reduction of C. jejuni: highest growth reduction
